The results in this text go back to patent US20250073311A1, “DOSAGE REGIME” (ZEALAND PHARMA A/S, priority 2021, published 2025).

The structures appear in SMILES notation. Several values for one entry are separate records, joined by “and”; a condition that tells them apart may be missing. Identical values can stand only once. Numbered stars: 1 amine (or outer) side, 2 acyl side, 3 side chain; on linkers, the order of the positions; unused ones are H or OH. Square brackets hold non-standard residues; d marks the D form. Side chains are listed from the residue outwards. Peptide text beside a SMILES is read from it. * marks the point of attachment. C18 diacid = O=C(O)CCCCCCCCCCCCCCCCC(=O)*; γGlu = O=C(O)[C@H](CCC(=O)[*:2])N[*:1]; Aib = CC(C)(N)C(=O)O

Data set [1] concerns healthy human subjects. The experiment in a line: Single ascending dose Phase 1a trial, adverse events. Type of data set: in vivo. The settings on record: 6 subjects. The method, then:
A single ascending dose Phase 1a trial was conducted for Cpd. 18 investigating the safety of single subcutaneous injections of doses ranging from 0.02 mg to 7.5 mg in healthy human subjects.
The phase 1a study was a First in Human, Randomized, Double-blind, Placebo-controlled, Single Ascending Dose Trial assessing Safety, Tolerability, Pharmacokinetics and Pharmacodynamics of a Single Subcutaneous Dose of Cpd. 18 in Healthy human Subjects.
Eight cohorts (dose levels: 0.02, 0.07, 0.2, 0.6, 1.5, 3.0, 6.0 and 7.5 mg) were given in this first in human trial. Eight subjects were allocated to the following ascending dose levels: 0.02, 0.07, 0.2, 0.6, 1.5, 3.0, 6.0 and 7.5 mg.
Adverse events (AE) were captured by asking open ended and nonleading questions according to the following wording in the protocol:
• All events meeting the definition of an AE must be collected and reported from the first trial-related activity after the subject has signed the informed consent and until the end of the post-treatment follow-up period. At each contact with the site (Visit or telephone) the subject must be asked about AEs. All AEs, either observed by the Investigator or reported by the subject, must be recorded by the Investigator and evaluated. • The Investigator should record the diagnosis, if possible. If no diagnosis can be made the Investigator should record each sign and symptom as individual AEs. • All AEs must be recorded by the Investigator. One single Adverse Event Form must be used per AE from start to resolution. For Serious Adverse Events (SAE), the Serious Adverse Event Form must also be completed.”

Data set [2] can be described thus: Body weight in Phase 1b trial. Type of data set: in vivo, human. The settings on record: four once weekly s.c. doses, 1.0 mg to 3.5/6.0 mg, healthy subjects, FIG. 3.

On to `CC[C@H](C)[C@H](NC(=O)[C@H](Cc1ccccc1)NC(=O)[C@H](CC(=O)O)NC(=O)[C@H](CCCNC(=N)N)NC(=O)[C@H](C)NC(=O)[C@H](C)NC(=O)[C@H](CCC(N)=O)NC(=O)[C@H](CCCCNC(=O)CC[C@H](NC(=O)CCCCCCCCCCCCCCCCC(=O)O)C(=O)O)NC(=O)[C@H](CC(=O)O)NC(=O)[C@H](CC(C)C)NC(=O)[C@@H](NC(=O)[C@@H](NC(=O)[C@H](C)NC(=O)[C@H](CC(C)C)NC(=O)[C@H](CCC(=O)O)NC(=O)[C@H](CO)NC(=O)[C@@H](NC(=O)[C@H](Cc1ccccc1)NC(=O)[C@H](CO)NC(=O)CNC(=O)[C@H](CCC(=O)O)NC(=O)C(C)(C)NC(=O)[C@@H](N)Cc1c[nH]cn1)[C@@H](C)O)[C@@H](C)O)[C@@H](C)CC)C(=O)N[C@@H](C)C(=O)N[C@@H](Cc1c[nH]c2ccccc12)C(=O)N[C@@H](CC(C)C)C(=O)N[C@H](C(=O)N[C@@H](CCC(N)=O)C(=O)N[C@@H](Cc1c[nH]cn1)C(=O)N[C@@H](CCCCN)C(=O)N[C@H](C(=O)N[C@H](C(=O)N[C@@H](CC(=O)O)C(=O)O)[C@@H](C)O)[C@@H](C)CC)[C@@H](C)CC` [Compound 18] (H-H[Aib]EGSFTSELATILDK([γGlu-C18 diacid])QAARDFIAWLIQHKITD-OH), for which the “Subjects experiencing decreased appetite” value in data set [1] (single s.c. dose 0.02 mg) was 0; in data set [1] (single s.c. dose 0.07 mg), 1; in data set [1] (single s.c. dose 0.2 mg) it was 0; in data set [1] (single s.c. dose 0.6 mg), 0; in data set [1] (single s.c. dose 1.5 mg) it was 3/6 and 3; in data set [1] (single s.c. dose 3.0 mg), 2. Also, the “Subjects experiencing decreased appetite” value in data set [1] (single s.c. dose 6.0 mg) came out at 3. Moreover, the Subjects experiencing nausea is 2 in data set [1] (single s.c. dose 0.02 mg); 0 in data set [1] (single s.c. dose 0.07 mg); 1 in data set [1] (single s.c. dose 0.2 mg); 0 in data set [1] (single s.c. dose 0.6 mg); 0 in data set [1] (single s.c. dose 1.5 mg); 3 in data set [1] (single s.c. dose 3.0 mg). Besides, the Subjects experiencing nausea stood at 4 in data set [1] (single s.c. dose 6.0 mg) and 2 in data set [1] (single s.c. dose 7.5 mg). Also, the Subjects experiencing vomiting in data set [1] (single s.c. dose 0.02 mg) is given as 0; in data set [1] (single s.c. dose 0.07 mg) it was 0; in data set [1] (single s.c. dose 0.2 mg) it was 0; in data set [1] (single s.c. dose 0.6 mg), 0; in data set [1] (single s.c. dose 1.5 mg), 0; in data set [1] (single s.c. dose 3.0 mg) it was 2. Moreover, the Subjects experiencing vomiting is 5 in data set [1] (single s.c. dose 6.0 mg) and 2 in data set [1] (single s.c. dose 7.5 mg). Further, the Body weight entry in data set [2] is recorded as “dose dependent reduction in body weight”.
